This note sets out measurements from patent US20050042209A1, “MUC1 extracellular domain and cancer treatment compositions and methods derived therefrom” (priority 2000, published 2005).

For data set [1], the system named is MUC1. The following applies: MUC1-positive cells.
Procedure: Cell Culture: Human MCF-7 breast carcinoma and HeLa cervical carcinoma cella (obtained form the ATCC, Manassas, Va.) were grown in DMEM (high glucose; Mediatech, Cellgrow) supplemented with 10% heat-inactivated fetal calf serum (FCS) and 2 mM L-glutamate.
(§4) Immunoblot analysis: Cells were lysed in ice-cold lysis buffer (20 mM Tris-HCl, pH 8.0, 150 mM NaCl, 1% Triton-X-100, 1 mM phenylsulfonyl fluoride, 1 mM DTT, 10 μgm/ml aprotinin) for 30 min. Lysates were cleared by centrifugation for 20 min. at 4° C. as described (Yin et al, 2001). Proteins were separated by SDS-PAGE, transferred to nitrocellulose and probed with anti-DF3/MUC1 (Kufe, U.S. Pat. No. 5,506,34) or anti-β-actin (Sigma). The antigen-antibody complexes were visualized by enhanced chemiluminescence (ECL; Amersham Life Sciences).
CDDO downregulates MUC1 expression: MUC1-positive cells were treated with CDDO at concentrations of 1, 3 and 5 μM.
Another data set concerns MUC1 transcripts. The following applies: MCF-7 cells.
In another data set the test system is intracellular ROS. Conditions: MCF-7 cells, compared to control.
The test system of a further data set is β-actin. As to the kind of experiment: β-actin expression after CDDO. Conditions: 5 μM.
In the next data set the test system is MUC1 DF3 antigen. As to the kind of experiment: DF3 antigen levels by immunoblot after NM-3. Type of data set: cell-based, human. Here is the method:
MCF-7 cells were treated with NM-3 (2-(8-hydroxy-6-methoxy-1-oxo-1 H-2-benzopyran-3-yl)propionic acid) at 100-400 μg/ml for 48 hr. DF3 antigen levels were visualized by immunoblot analysis with DF3 MAb (Kufe, U.S. Pat. No. 5,506,343, herein incorporated by reference).
A decrease in the intracellular levels of DF3 antigen of NM-3 treated cells relative to non-treated cells was observed. […] To determine whether NM-3 impaired the extracellular localization of the MUC1 DF3 antigen, the antigen levels in cell culture medium supernatants and on MCF-7 cells after NM-3 treatment were investigated. The levels of DF3 antigen were reduced in both localizations.

The test system of data set [2] is epidermal growth factor receptor (EGF-R). Kind of data set: EGF-R expression after NM-3. Conditions: MCF-7, ZR-75-1 and BT-20 cell lines. Type of data set: cell-based, human. How it is done:
To determine whether NM-3 inhibits the expression of cellular surface proteins as well, the level of epidermal growth factor receptor (EGF-R) expression after NM-3 treatment was tested on MCF-7, ZR-75-1 and BT-20 cell lines.

Data set [3] deals with MUC1. Kind of data set: Western blot of MUC1 after siRNA transfection. The format is cell-based, human. The following applies: siRNA 0.2 micromolar. From the text: Cell Culture: Human MCF-7 breast cancer cells were maintained in DMEM supplemented with 10% heat inactivated fetal bovine serum (FBS) and 1% penicillin-streptomycin mixture. Human A549 non-small cell lung cancer cells were maintained in RPMI1640 medium supplemented with 10% FBS and 1% penicillin-streptomycin mixture.
(§1) siRNAs: Five different double stranded anti-MUC1 siRNAs were designed: one against the target sequence SEQ ID NO: 63, i.e., […], with sense and antisense strands as shown in SEQ ID NO: 64 and SEQ ID NO: 65 respectively (hereinafter siRNA #1); one against the target sequence SEQ ID NO: 42, i.e., […], with sense and antisense strands as shown in SEQ ID NO: 43 and SEQ ID NO: 44 respectively (hereinafter siRNA #2); one against the target sequence SEQ ID NO: 21, i.e., […], with sense and antisense strands as shown in SEQ ID NO: 22 and SEQ ID NO: 23 respectively (hereinafter siRNA #3); one against the target sequence SEQ ID NO: 66, i.e., […], with sense and antisense strands as shown by SEQ ID NO: 67 and SEQ ID NO: 68 respectively (hereinafter siRNA #4); and one against target sequence SEQ ID NO: 69, i.e., […], with sense and antisense strands as shown by SEQ ID NO: 70 and SEQ ID NO: 71 respectively (hereinafter siRNA #5). A control siRNA was designed against the scrambled target SEQ ID NO: 72 with sense and antisense strands as shown by SEQ ID NO: 73 and SEQ ID NO: 74 respectively. Each RNA sense oligonucleotide (50 μM) was combined with equal volume of antisense oligonucleotide (50 μM) in an annealing buffer (20 mM KCl, 6 mM HEPES-KOH, pH 7.5, 0.2 mM MgCl2). The solution was incubated for 1 min at 90° C. to denature secondary structure, and placed at 37° C. for 1 hour to anneal the complementary strands. The subsequent double stranded RNAs were used as the anti-MUC1 siRNA.
Transfection: Cells (1-3×10^5 cells/well) were plated in 6-well plates in growth medium without antibiotics, and incubated overnight. After washing cells once with Opti-MEM I (Invitrogen), 800 μL of fresh Opti-MEM I and 200 μL of the Reagent (Invitrogen) were added to the cultured cells. Four hours later, 300 μL of FBS was added to the cultured cells.
Western Blot Analysis: Cell were passed a day before transfection. MUC1 siRNA (0.2 micromolar) was added with oligofectamine to cells in 0% FBS. Four hours later serum was added to a final concentration of 10%. After various time intervals (48 h, 72 h and 96 h), cells were washed and total cell lysates were prepared. Proteins were separated from cell lysates by SDS-PAGE, transferred to nitrocellulose and analyzed by immunoblotting with anti-DF3 antibodies.
(A western blot detects proteins with antibodies after separation by electrophoresis.)

A further data set relates to MUC1 RNA. As to the kind of experiment: RT-PCR of MUC1 RNA after siRNA transfection. The following applies: FIG. 5. The format is cell-based, human.
Source text: as §1
RT-PCR: Total RNA was extracted and purified from cultured cells using RNAzol B according the manufacturer's instructions. The RNA was quantified by determining absorbance at 260 nm. One μg of total RNA from each sample was reverse transcribed into cDNA using Thermoscript reverse transcriptase (Invitrogen) in a volume of 20 μL. The cDNA product was amplified by PCR using Platinum Taq DNA polymerase (Invitrogen) and specific primers for MUC1 and beta-actin as an internal control. The sequences of primers used were as follows; • MUC1 (forward, 5′-[…]-3′; reverse, 5′-[…]-3′) and beta-actin (forward, 5′-[…]-3′; reverse, 5′-[…]-3′).
The reaction was performed using the following program: 94° C. for 2 min, 29 cycles (25 cycles for beta-actin) at 94° C. for 2 min, 48° C. for 1 min, 72° C. for 30s and then additional extension step of 72° C. for 10 min. The PCR products were separated on a 2% agarose gel, stained with ethidium bromide and photographed under UV light.

Data set [4] concerns A549 cells. As to the kind of experiment: Proliferation of A549 cells. Type of data set: cell-based, human. Conditions: transfection of siRNA; FIG. 8. How it is done:
(§2) Cell culture: Human non-small cell lung cancer A549 cells were grown in RPMI1640 medium supplemented with 10% fetal bovine serum (FBS), 100 units/ml of penicillin and 100 μg/ml of streptomycin, respectively.
Transfection with siRNA: Cells (3×10^5 cells/well) were plated in 6-well plates in growth medium without antibiotics, and incubated overnight. Cells were then transfected with MUC1 siRNAs, siRNA #1, i.e., one against the target sequence SEQ ID NO: 63, i.e., […] with sense and antisense strands as shown in SEQ ID NO: 64 and SEQ ID NO: 65 respectively; and siRNA #2, i.e., one against the target sequence SEQ ID NO: 42, i.e., […] with sense and antisense strands as shown in SEQ ID NO: 43 and SEQ ID NO: 44 respectively, and one control siRNA directed towards the non-specific gene target […] using Oligofectamine reagent (Invitrogen) according to the manufacturer's instructions. After 24 hr of transfection, the medium was changed to complete medium containing antibiotics.
(§3) Treatment of Cells with cisplatinum (CDDP): At 72 hr post transfection of siRNAs, 10 μM CDDP was added to the cells in fresh culture medium. After 48 hr of CDDP exposure cells were trypsinized and analyzed for MUC1 expression and apoptosis as described below.

The test system of data set [5] is A549 cells. Kind of data set: Apoptosis assay (Annexin V-FITC/PI) in A549 cells. The format is cell-based, human. Conditions: FIG. 7. How it is done:
as §2
Transfection with siRNA: Cells (3×10^5 cells/well) were plated in 6-well plates in growth medium without antibiotics, and incubated overnight. […]
as §3
Apoptosis assay.: A549 cells were initially stained for MUC1 expression using the DF3 monoclonal antibody (Kufe, U.S. Pat. No. 5,506,343, herein incorporated by reference). […] The amount of DF3 staining was then measured using a biotinylated goat anti-mouse secondary antibody (diluted 1:200 in staining buffer) and streptavidin-conjugated phycoerythrin (diluted 1:50 in staining buffer). After fluorescent staining for MUC1 expression, apoptosis was determined by staining cells with Annexin V-FITC and propidium iodide (PI). […] Using a flow cytometer, (EPICS XL-MCL, Coulter Corp), the amount of MUC1 expressing cells were determined using the FL2 detector, annexin V-FITC staining was measured in the FL1 detector and propidium iodide staining was measured in the FL3 detector. […]

Read-outs that look alike come from different tables or passages of the source. d = 2'-deoxy (DNA); r = 2'-OH (RNA)

Procedure for MUC1 transcripts: Reverse transcription-polymerase chain reaction (RT-PCR): Total cellular RNA was extracted in Triazol, dissolved in RNAase-free water and incubated for 10 min. at 55° C. MUC1-specific primers (5′-[sequence]-3′ and 3′-[sequence]-5′) were designed to span a region within the genomic DNA that contains two introns and result in amplification of a 489-bp fragment from RNA and a 783-bp fragment from genomic DNA. RNA-specific primers for human β-actin were used as a control. The RNA was reverse transcribed and amplified using SuperScript One-Step RT-PCR with Platinum Taq (GIBCO-BRL Gaithersburg, Md.). Amplified fragments were analyzed by electrophoresis in 2% agarose gels.
To determine whether MUC1 expression is decreased at the mRNA level , RT-PCR was performed on MCF-7 cells treated with CDDO and the derivatives. […] Whereas CDDO induces apoptosis of diverse cell types, we assessed viability of MCF-7 cells under the same experimental conditions.
Procedure for intracellular ROS: Measurement of ROS levels: Cells were incubated with 10 mM DCF-DA Sigma) for 15 min. at 37° C. to assess ROS-mediated oxidation of the fluorescent compound DCF (LeBel et al., 1992). Fluorescence of oxidized DCF was measured at an excitation wavelength of 480 nm and an emission wavelength of 525 nm using a flow cytometer (Beckton Dickerson, Lincoln Park, N.J.).
As a control, cells were incubated with NAC, a scavenger of ROS.
Procedure for β-actin: as §4

In the case of `CC1(C)CC[C@]2(C(=O)O)CC[C@]3(C)[C@H](C(=O)C=C4[C@@]5(C)C=C(C#N)C(=O)C(C)(C)[C@@H]5CC[C@]43C)[C@@H]2C1` [CDDO], the “MUC1 protein (immunoblot)” value with MUC1 [1] (5 μM) is listed as “decreased levels”; in the data set with MUC1 [1] (1 or 3 μM at 24 hr), “little if any effect”. Further, the “MUC1 transcripts (RT-PCR)” value with MUC1 transcripts is reported as “decrease”. Moreover, the “ROS (oxidation of DCF)” value with intracellular ROS is on record as “detectable increases”. Moreover, the β-actin gene expression entry with β-actin is given as “no apparent effect”.
`COc1cc(O)c2c(=O)oc(C(C)C(=O)O)cc2c1` (centres unmarked) [NM-3, 2-(8-hydroxy-6-methoxy-1-oxo-1 H-2-benzopyran-3-yl)propionic acid]: in the data set on MUC1 DF3 antigen (MCF-7 cells after NM-3 treatment), the “levels of DF3 antigen in cell culture medium supernatants and on MCF-7 cells” value is “reduced”. Further, the “intracellular levels of DF3 antigen” value in the data set on MUC1 DF3 antigen (MCF-7 cells, 100-400 μg/ml for 48 hr, relative to non-treated cells) was “decrease”. Moreover, the EGF-R expression entry in data set [2] is listed as “no detectable changes”.
For “siRNA #1: double stranded anti-MUC1 siRNA, target SEQ ID NO: 63, sense SEQ ID NO: 64, antisense SEQ ID NO: 65 (sense GGGGGUUUUCUGGGCCUCUTT; antisense AGAGGCCCAGAAAACCCCCTT; sugars from the 5' end r19 d2, backbone not given here)”, the “MUC1 expression at the protein level (immunoblot)” value in the data set with MUC1 [3] (A549 cells, FIG. 5) is “downregulate MUC1 expression”; in the data set with MUC1 [3] (MCF-7 cells, FIG. 5, FIG. 6) it was “downregulate MUC1 expression”. Moreover, the “MUC1 expression at the RNA level (RT-PCR)” value with MUC1 RNA (A549 cells) and with MUC1 RNA (MCF-7 cells) was “downregulate MUC1 expression” each time. Also, in the data set with A549 cells [4], the “proliferation of A549 cells” value was “decreased the proliferation”.
“siRNA #2: double stranded anti-MUC1 siRNA, target SEQ ID NO: 42, sense SEQ ID NO: 43, antisense SEQ ID NO: 44 (sense GGUACCAUCAAUGUCCACGTT; antisense CGUGGACAUUGAUGGUACCTT; sugars from the 5' end r19 d2, backbone not given here)”: the “MUC1 expression at the protein level (immunoblot)” value is on record as “downregulate MUC1 expression” in the data set on MUC1 [3] (A549 cells, FIG. 5) and “downregulate MUC1 expression” with MUC1 [3] (MCF-7 cells, FIG. 5, FIG. 6). Moreover, the “MUC1 expression at the RNA level (RT-PCR)” value with MUC1 RNA (A549 cells) and in the data set on MUC1 RNA (MCF-7 cells) was “downregulate MUC1 expression” throughout. In the data set with A549 cells [5] (A549 cells transfected with siRNA, relative to controls), the “percentage of apoptotic cells” value was “increase”. Moreover, the “percentage of apoptotic cells, combination” value in the data set on A549 cells [5] (A549 cells, siRNA 72 hr then 10 μM CDDP 48 hr) is given as “more than additively enhances”. Moreover, the “proliferation of A549 cells” value in the data set on A549 cells [4] is recorded as “decreased the proliferation”.
